Assay results published in paper PMC10490032, “From Monoamine Oxidase Inhibition to Antiproliferative Activity: New Biological Perspectives for Polyamine Analogs” (Molecules, 2023).
“Also recorded” adds a separate entry of the source. Values belong to the molecule of their own block, whether it stands above or below them.

How the values were obtained:
human VAP-1 [1] = biological target: T1, human VAP-1 (Homo sapiens, UniProt Q16853); assay: VAP-1 amine oxidase activity, Amplex Red/horseradish peroxidase assay, benzylamine as substrate; conditions: up to a 50 μM concentration
T1 sequence (Q16853 1-763): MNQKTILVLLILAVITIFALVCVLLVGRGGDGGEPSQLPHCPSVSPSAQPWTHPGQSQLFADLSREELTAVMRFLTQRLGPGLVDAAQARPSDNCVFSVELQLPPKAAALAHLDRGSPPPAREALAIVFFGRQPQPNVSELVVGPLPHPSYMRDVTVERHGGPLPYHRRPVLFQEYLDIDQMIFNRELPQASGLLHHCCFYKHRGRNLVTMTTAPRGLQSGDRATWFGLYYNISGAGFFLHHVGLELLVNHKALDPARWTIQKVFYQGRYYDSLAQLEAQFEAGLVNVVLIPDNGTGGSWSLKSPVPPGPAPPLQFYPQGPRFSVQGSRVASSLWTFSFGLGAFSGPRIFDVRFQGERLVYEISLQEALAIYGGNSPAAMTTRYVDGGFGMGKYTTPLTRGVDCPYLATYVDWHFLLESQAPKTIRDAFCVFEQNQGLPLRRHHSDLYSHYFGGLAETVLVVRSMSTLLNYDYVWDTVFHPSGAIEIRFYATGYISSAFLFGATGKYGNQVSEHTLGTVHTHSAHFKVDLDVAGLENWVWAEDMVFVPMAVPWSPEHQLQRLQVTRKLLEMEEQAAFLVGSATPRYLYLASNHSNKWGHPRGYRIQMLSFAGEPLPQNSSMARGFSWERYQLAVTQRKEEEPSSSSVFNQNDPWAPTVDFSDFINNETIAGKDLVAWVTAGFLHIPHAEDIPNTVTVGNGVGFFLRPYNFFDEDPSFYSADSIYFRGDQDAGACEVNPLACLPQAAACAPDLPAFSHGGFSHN

human recombinant MAO B [2] = biological target: T2, human recombinant MAO B (Homo sapiens, UniProt P27338); assay: MAO B inhibition, kynuramine assay (4-hydroxyquinoline fluorescence); conditions: MAO B Ki, human recombinant MAO B; kynuramine 10 μM; from slope of Vo/VI vs compound concentration (1.25–40 μM); mean ± S.D.
T2 sequence (P27338 1-520): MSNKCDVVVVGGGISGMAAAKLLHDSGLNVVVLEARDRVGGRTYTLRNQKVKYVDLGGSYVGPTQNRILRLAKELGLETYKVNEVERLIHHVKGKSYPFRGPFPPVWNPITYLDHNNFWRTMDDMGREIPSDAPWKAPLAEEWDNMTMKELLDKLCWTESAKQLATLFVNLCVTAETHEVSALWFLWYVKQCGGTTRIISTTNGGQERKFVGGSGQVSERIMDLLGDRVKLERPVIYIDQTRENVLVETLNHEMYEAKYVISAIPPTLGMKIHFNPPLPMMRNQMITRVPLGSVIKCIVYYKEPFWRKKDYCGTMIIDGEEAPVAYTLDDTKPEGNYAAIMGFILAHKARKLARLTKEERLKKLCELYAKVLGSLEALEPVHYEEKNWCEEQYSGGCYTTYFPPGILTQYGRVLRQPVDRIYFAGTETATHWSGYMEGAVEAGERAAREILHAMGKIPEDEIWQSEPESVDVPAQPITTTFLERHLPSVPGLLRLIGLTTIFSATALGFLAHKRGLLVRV

human recombinant MAO A = biological target: T3, human recombinant MAO A (Homo sapiens, UniProt P21397); assay: MAO A inhibition, kynuramine assay (4-hydroxyquinoline fluorescence); conditions: MAO A Ki, human recombinant MAO A; kynuramine 10 μM; from slope of Vo/VI vs compound concentration (1.25–40 μM); mean ± S.D.
T3 sequence (P21397 1-527): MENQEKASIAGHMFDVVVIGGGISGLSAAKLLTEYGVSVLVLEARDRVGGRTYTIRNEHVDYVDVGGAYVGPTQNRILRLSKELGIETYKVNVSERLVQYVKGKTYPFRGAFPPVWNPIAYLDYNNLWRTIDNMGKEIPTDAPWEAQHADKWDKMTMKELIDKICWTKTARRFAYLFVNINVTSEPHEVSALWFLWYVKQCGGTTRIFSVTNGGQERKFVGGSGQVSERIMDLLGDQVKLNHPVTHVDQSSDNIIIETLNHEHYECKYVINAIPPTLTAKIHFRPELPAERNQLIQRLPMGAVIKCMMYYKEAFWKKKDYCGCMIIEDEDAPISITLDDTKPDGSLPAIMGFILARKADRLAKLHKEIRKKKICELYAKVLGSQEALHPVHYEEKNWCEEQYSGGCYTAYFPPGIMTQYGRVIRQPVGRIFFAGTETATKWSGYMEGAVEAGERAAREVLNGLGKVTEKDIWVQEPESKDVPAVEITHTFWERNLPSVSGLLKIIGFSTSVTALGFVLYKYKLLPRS

murine SMOX [3] = biological target: T4, murine SMOX (Mus musculus, UniProt Q99K82); assay: SMOX amine oxidase activity, Amplex Red/horseradish peroxidase assay, spermine as substrate; conditions: up to a 50 μM concentration
[4] = test system: LN-229 glioblastoma cell line; assay: Inhibition growth assay, Trypan blue exclusion; assay type: cell-based, human; conditions: Homo sapiens, LN-229, 48 h, LN-229, 48 h of incubation; mean ± SD of five independent experiments in duplicate
Excerpt: On this basis, we investigated the antiproliferative effect of compounds 1–7 on LN-229, a human glioblastoma cell line. Compound 1 and the well-known antitumor drug doxorubicin were taken as references. […] The data in Table 3 support the lack of cytotoxicity of compound 1.
The LN-229 (human glioblastoma) was purchased from the American Type Culture Collection (ATCC) and cultured in DMEM (D2902, Sigma Chemical Co., St. Louis, MO, USA) supplemented with 3.5 g/L of glucose and 5% heat-inactivated fetal calf serum (FCS) (F7524, Sigma Chemical Co.), respectively. A total of 100 U/mL of penicillin, 100 μg/mL of streptomycin, and 0.25 μg/mL of amphotericin B (Sigma Chemical Co.) were added to the medium. Cells were cultured at 37 °C in a humidified atmosphere incubator containing 5% carbon dioxide in air.
Cells (3–6 × 10^4/well) were seeded into a 24-well cell culture plate; after 24 h, different concentrations of the test compounds or reference drug were added. After 48 h of incubation in standard conditions, the cell viability was determined by using a Trypan blue exclusion assay. Briefly, cells were detached by using a […] and 0.3 mM EDTA solution in PBS and stained with 0.1% Trypan blue solution in PBS. Unstained viable cells were immediately counted in a Burker chamber. The percentage of viable cells was calculated with respect to the untreated control culture. […] The goodness of the fit was expressed by the r^2 coefficient, and the best fit report included the analysis of variance corrected for the mean of the observations with the p values (p < 0.005 for all the tested compounds). Data are the means ± SD of at least five independent experiments in duplicate.

MAO = assay: Test of compounds as potential MAO substrates, Amplex Red/horseradish peroxidase coupled method; assay type: biochemical, human; conditions: up to a 50 μM concentration
Method: Before evaluating the potential MAO inhibitory capability of derivatives 2–7, kinetic experiments were performed to assay their behaviors as potential MAO substrates by using the Amplex Red/horseradish peroxidase coupled method, which detects the hydrogen peroxide produced by the amine oxidase enzyme activity in the presence of an amine substrate. […] Thus, for the subsequent inhibition studies, an assay method that used kynuramine as the MAO substrate and detected the production of 4-hydroxyquinoline (formed from the aldehyde reaction product) was applied.
Except for compound 4, no significant interference of the other polyamine analogs with the preliminary calibration curves was observed. […] The evaluations of the effects of compounds 1–7 on the MAO activity were performed by using a kynuramine assay due to the interferences of compound 4 with the Amplex Red method.

murine SMOX [5] = biological target: T4, murine SMOX; parameters: made in house; host or cells: E. coli BL21 DE3; conditions: previous studies ref 35, 40; cited from earlier work
human recombinant MAO B [6] = biological target: T2, human recombinant MAO B; parameters: purchased Merk s.r.l; (Italy); host or cells: baculovirus-infected BT1 cells; method as in PMID 21858471; conditions: previous study ref 35; cited from earlier work
human VAP-1 [7] = biological target: T1, human VAP-1; parameters: Biothie Therapies Cor; (Turku, Finland), gift; method as in PMID 21858471, PMID 30829081; conditions: previous studies ref 35, 40; cited from earlier work
[8] = substrate: NCCC(=O)c1ccccc1N; assay: purified protein, by the assay type; conditions: other: substrate, human recombinant MAO A; pH 7.4; 37.0 °C

T4 sequence (Q99K82 whole entry): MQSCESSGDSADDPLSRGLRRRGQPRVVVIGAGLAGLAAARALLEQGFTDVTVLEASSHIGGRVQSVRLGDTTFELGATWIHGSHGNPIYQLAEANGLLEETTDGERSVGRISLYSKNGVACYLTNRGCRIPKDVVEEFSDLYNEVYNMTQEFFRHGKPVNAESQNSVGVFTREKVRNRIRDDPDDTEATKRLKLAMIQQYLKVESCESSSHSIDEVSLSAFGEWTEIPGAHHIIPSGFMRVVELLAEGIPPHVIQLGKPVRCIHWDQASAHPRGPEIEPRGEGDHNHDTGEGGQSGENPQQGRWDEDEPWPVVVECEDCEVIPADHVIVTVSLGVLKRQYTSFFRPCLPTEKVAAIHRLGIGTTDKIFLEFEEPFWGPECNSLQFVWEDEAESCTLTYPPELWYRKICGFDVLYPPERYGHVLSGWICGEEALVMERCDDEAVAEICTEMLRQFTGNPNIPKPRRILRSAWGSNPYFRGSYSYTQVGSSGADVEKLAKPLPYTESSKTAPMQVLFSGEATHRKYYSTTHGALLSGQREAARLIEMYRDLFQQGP

Behaviour as VAP-1 substrate (human VAP-1 [1]): not substrates
Ki (human recombinant MAO B [2]): 19 ± 2 µM
Ki (human recombinant MAO A): 70 ± 7 µM
Behaviour as SMOX substrate (murine SMOX [3]): not substrates
GI50 [4]: 2.2 ± 0.9 µM
Behaviour as MAO substrate (MAO): did not act as substrates
Molecule: COc1ccccc1CNCCCCCC(=O)N1CCC(CCC2CCN(C(=O)CCCCCNCc3ccccc3OC)CC2)CC1 [Compound 3]

Ki (human recombinant MAO B [2]): 330 ± 30 µM
Ki (human recombinant MAO A): 247 ± 42 µM
GI50 [4]: 4.6 ± 1.1 µM
Behaviour as MAO substrate (MAO): did not act as substrates
Molecule: COc1ccccc1CNCCCCCCN1CCC(CCC2CCN(CCCCCCNCc3ccccc3OC)CC2)CC1 [Compound 2]
Inhibition of SMOX (murine SMOX [5]): poor inhibitor
Mode of inhibition of MAO B (human recombinant MAO B [6]): mainly competitive/mixed; also recorded: reversible mixed-type
Inhibition of VAP-1 (human VAP-1 [7]): poor inhibitor

B1: human recombinant MAO A (Homo sapiens) (protein)
chain: T3 sequence (P21397 1-527)
Km [8]: 32 ± 11 µM
